Usually AC50 stands for the concentration at which the activity in the assay is half-maximal.

Drawing on ChEMBL document CHEMBL5291721, “A preclinical secondary pharmacology resource illuminates target-adverse drug reaction associations of marketed drugs” (Nat Commun, 2023), this text covers AC50 for twelve compounds.

Some targets named below: Melanocortin receptor 3 (Homo sapiens, UniProt P41968); Adenosine receptor A2a (Homo sapiens, UniProt P29274); D(3) dopamine receptor (Homo sapiens, UniProt P35462).
In assay [1] the target is T1, 5-hydroxytryptamine receptor 1A (Homo sapiens, UniProt P08908).
T1 sequence (P08908 whole entry): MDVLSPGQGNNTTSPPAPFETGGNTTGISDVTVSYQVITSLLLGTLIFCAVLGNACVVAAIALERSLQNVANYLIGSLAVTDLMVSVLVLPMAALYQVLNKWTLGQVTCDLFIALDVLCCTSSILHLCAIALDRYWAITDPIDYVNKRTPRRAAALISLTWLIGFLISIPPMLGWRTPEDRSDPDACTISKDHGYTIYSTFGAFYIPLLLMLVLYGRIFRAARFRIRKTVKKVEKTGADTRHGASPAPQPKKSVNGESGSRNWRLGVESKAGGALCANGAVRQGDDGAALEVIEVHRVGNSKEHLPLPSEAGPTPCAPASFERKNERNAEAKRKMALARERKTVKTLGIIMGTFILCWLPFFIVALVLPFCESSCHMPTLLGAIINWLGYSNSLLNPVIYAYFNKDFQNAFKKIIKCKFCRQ
Format: functional, cell-based.

Assay [2] has as its target Sodium-dependent noradrenaline transporter (Homo sapiens, UniProt P23975).
For assay [3], the target named is T2, Cholecystokinin receptor type A (Homo sapiens, UniProt P32238).
T2 sequence (P32238 whole entry): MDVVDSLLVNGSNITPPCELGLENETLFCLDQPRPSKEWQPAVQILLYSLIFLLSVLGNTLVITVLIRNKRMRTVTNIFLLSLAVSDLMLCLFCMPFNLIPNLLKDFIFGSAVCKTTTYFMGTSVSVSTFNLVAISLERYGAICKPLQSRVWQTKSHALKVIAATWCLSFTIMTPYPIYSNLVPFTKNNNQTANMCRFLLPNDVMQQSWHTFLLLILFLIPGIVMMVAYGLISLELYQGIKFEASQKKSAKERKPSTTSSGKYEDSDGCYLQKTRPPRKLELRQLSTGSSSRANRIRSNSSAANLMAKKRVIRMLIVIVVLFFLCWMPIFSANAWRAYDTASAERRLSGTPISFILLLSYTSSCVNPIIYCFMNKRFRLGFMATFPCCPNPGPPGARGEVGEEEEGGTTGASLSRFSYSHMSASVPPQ

The target in a further assay is T3, Adenosine receptor A3 (Homo sapiens, UniProt P0DMS8).
T3 sequence (P0DMS8 whole entry): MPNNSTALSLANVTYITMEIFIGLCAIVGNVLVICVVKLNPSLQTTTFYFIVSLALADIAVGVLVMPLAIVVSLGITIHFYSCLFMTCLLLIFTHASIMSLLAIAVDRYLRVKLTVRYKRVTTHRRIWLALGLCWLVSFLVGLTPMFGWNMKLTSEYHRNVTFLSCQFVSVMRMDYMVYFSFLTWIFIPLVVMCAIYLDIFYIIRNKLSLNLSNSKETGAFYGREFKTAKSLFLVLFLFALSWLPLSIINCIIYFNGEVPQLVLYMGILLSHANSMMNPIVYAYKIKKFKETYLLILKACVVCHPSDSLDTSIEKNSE

For a further assay, the target named is T4, Adenosine receptor A1 (Homo sapiens, UniProt P30542).
T4 sequence (P30542 whole entry): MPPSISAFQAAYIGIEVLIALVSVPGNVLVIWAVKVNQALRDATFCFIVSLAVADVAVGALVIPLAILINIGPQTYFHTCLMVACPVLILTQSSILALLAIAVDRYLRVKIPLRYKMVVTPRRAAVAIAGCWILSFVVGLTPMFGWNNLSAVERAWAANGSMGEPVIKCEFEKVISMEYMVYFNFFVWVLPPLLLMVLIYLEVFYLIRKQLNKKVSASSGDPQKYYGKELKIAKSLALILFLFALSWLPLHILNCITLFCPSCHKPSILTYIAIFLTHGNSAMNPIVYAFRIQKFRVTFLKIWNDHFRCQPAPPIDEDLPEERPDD

The target in assay [4] is cGMP-inhibited 3',5'-cyclic phosphodiesterase 3A (Homo sapiens, UniProt Q14432). Format: functional.
Sequence of cGMP-inhibited 3',5'-cyclic phosphodiesterase 3A (Q14432 whole entry): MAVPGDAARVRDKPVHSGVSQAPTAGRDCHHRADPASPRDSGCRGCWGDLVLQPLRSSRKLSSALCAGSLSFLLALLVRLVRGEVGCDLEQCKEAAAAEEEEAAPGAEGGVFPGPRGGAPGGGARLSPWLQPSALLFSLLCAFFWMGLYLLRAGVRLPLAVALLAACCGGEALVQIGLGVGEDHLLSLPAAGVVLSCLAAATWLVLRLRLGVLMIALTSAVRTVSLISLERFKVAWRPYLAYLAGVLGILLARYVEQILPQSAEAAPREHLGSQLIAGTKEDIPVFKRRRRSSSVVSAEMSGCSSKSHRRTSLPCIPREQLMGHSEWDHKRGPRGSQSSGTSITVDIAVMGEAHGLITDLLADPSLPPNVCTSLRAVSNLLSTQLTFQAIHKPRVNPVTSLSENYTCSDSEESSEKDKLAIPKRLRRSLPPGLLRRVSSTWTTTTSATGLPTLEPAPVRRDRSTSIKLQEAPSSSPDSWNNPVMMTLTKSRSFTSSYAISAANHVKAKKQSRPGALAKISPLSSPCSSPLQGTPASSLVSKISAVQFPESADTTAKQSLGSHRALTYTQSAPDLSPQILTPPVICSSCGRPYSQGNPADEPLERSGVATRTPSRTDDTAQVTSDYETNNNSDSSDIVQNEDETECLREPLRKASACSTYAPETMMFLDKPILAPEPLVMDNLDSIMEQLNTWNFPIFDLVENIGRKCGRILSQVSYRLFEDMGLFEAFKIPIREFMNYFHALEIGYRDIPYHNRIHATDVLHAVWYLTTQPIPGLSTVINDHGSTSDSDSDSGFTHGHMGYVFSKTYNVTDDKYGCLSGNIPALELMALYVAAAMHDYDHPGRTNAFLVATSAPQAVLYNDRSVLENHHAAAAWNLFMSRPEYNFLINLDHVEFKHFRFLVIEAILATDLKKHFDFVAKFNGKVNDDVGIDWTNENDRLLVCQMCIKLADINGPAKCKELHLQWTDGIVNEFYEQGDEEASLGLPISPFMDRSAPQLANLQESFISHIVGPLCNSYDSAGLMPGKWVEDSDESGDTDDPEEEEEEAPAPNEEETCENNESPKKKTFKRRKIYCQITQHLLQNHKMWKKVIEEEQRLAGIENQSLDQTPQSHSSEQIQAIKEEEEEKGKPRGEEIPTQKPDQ
The target in another assay is D(1A) dopamine receptor (Homo sapiens, UniProt P21728). Type of assay: functional, cell-based.
Sequence of D(1A) dopamine receptor (P21728 whole entry): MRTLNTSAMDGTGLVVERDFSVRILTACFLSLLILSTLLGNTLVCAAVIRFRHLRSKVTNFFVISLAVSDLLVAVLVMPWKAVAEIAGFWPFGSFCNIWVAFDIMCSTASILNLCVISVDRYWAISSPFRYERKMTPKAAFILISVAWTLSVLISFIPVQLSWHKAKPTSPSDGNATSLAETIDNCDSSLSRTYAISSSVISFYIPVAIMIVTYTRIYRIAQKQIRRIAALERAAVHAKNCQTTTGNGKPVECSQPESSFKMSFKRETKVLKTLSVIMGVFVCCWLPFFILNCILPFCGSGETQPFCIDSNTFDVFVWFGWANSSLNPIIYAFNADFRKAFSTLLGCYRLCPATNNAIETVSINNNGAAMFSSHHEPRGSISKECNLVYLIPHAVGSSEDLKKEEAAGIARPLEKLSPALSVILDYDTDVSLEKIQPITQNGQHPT
The target of assay [5] is T5, Equilibrative nucleoside transporter 1 (Homo sapiens, UniProt Q99808).
T5 sequence (Q99808 whole entry): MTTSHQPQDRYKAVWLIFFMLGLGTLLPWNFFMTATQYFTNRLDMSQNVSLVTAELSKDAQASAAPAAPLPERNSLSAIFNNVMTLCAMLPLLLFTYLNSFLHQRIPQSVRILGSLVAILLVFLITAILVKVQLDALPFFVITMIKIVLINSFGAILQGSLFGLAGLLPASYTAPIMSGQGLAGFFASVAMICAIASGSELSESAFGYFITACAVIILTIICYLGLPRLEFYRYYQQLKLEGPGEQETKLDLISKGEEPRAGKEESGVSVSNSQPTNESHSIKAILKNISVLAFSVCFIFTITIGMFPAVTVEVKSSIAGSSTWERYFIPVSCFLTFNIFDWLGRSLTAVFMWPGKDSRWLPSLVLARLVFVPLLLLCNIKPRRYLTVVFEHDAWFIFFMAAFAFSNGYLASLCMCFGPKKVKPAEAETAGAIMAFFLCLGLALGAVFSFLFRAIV

In assay [6] the target is Voltage-gated inwardly rectifying potassium channel KCNH2 (Homo sapiens, UniProt Q12809). Type of assay: functional. The note with it: read-out: AC50.
Sequence of Voltage-gated inwardly rectifying potassium channel KCNH2 (Q12809 whole entry): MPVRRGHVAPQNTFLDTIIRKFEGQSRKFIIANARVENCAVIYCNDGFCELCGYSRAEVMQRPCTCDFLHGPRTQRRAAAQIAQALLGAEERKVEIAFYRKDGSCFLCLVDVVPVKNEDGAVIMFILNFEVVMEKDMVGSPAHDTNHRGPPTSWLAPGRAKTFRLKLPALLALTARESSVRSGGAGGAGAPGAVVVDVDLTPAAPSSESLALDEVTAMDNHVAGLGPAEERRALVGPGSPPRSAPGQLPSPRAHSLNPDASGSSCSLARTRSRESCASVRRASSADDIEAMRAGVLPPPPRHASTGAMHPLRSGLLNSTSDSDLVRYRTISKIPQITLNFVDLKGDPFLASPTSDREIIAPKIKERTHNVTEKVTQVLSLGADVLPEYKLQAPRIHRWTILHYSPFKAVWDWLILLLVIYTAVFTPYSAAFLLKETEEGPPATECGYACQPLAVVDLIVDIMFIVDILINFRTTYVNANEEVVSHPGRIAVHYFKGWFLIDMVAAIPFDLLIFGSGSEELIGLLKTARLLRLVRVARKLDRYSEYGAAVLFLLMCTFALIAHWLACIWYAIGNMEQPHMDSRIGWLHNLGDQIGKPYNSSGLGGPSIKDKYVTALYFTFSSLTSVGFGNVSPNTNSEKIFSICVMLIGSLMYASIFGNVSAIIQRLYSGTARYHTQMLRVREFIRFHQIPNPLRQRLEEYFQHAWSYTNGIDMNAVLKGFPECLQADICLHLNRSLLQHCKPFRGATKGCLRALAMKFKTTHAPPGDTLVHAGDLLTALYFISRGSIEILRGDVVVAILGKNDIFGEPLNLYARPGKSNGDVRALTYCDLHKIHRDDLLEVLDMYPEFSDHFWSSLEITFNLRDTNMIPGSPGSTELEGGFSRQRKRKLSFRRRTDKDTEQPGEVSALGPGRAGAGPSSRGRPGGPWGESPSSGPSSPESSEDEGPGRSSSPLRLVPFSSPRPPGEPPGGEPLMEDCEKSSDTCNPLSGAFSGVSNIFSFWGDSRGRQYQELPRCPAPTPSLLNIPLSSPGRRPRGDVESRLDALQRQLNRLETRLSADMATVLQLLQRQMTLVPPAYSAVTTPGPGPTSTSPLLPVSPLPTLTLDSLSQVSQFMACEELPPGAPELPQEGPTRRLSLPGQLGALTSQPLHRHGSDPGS
Also: assay procedure not described here.

Sequence of Adenosine receptor A2a (P29274 whole entry): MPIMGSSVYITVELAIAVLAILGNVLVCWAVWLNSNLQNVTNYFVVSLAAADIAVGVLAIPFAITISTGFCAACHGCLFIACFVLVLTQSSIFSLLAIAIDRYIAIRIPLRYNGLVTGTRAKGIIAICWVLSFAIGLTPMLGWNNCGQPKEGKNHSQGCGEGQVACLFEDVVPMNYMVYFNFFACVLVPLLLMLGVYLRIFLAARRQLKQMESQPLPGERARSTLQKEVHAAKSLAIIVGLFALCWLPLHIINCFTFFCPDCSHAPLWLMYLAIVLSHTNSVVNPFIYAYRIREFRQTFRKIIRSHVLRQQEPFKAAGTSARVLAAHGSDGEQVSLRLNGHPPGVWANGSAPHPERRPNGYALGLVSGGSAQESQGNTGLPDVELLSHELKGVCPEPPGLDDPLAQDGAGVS
Sequence of Melanocortin receptor 3 (P41968 whole entry): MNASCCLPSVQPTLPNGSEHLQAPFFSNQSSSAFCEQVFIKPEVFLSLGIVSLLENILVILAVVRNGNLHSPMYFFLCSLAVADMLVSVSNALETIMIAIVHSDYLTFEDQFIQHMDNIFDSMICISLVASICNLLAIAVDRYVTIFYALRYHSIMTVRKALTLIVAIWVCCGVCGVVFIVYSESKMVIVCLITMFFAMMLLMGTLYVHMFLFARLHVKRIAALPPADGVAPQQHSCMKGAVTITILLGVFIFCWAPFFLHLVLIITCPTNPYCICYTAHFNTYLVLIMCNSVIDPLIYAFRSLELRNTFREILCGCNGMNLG
Sequence of D(3) dopamine receptor (P35462 whole entry): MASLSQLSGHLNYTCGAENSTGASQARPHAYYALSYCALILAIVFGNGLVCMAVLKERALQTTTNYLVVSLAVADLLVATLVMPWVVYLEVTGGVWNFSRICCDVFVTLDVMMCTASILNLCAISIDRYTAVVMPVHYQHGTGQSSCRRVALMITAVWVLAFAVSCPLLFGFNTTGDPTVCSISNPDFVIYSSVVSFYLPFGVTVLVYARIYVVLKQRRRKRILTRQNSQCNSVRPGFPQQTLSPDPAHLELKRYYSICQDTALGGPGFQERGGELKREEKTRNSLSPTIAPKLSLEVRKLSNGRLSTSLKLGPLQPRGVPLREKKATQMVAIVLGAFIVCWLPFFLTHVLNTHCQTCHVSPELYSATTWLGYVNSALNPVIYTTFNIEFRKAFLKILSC
Sequence of Sodium-dependent noradrenaline transporter (P23975 whole entry): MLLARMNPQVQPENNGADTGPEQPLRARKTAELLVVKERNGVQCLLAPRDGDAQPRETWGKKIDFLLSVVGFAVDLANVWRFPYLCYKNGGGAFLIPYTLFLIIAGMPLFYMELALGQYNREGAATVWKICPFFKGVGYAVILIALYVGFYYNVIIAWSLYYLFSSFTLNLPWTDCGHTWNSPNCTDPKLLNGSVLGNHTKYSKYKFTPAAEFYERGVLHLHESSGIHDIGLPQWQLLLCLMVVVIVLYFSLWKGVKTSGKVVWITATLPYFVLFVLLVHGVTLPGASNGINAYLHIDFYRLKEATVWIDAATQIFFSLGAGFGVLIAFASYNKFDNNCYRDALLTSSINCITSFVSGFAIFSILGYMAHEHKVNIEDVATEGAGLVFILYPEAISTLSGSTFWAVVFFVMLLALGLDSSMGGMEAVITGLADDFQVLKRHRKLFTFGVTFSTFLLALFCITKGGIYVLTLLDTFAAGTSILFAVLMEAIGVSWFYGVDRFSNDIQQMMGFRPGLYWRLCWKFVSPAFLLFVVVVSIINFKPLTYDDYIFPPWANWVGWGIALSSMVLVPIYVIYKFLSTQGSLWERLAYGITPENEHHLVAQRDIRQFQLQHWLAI

Take `COC(=O)CCc1ccc(OCC(O)CNC(C)C)cc1` (centres undefined) [ESMOLOL]: the concentration at half-maximal activity (AC50) (on Melanocortin receptor 3; on Adenosine receptor A2a; in assay [1]; in [2]; in [3]; on Adenosine receptor A3) was above 30 µM throughout. Further, the AC50 (on Adenosine receptor A1; in assay [4]; on D(1A) dopamine receptor; in assay [5]; on D(3) dopamine receptor; in assay [6]) was above 30 µM throughout.

For the compound `C[C@]12CCC(=O)C=C1CC[C@H]1[C@@H]3CC[C@](O)(C(=O)CO)[C@@]3(C)C[C@H](O)[C@@]12F` [FLUDROCORTISONE], the AC50 is above 30 µM at Melanocortin receptor 3; above 30 µM on Adenosine receptor A2a; above 10 µM in assay [1]; above 30 µM in assay [2]; above 30 µM in assay [3]; above 30 µM on Adenosine receptor A3. The AC50 is above 30 µM on Adenosine receptor A1; above 30 µM in assay [4]; above 10 µM at D(1A) dopamine receptor; above 30 µM in [5]; above 30 µM on D(3) dopamine receptor; above 30 µM in assay [6].

For the compound `CCOC(=O)Nc1ccc(NCc2ccc(F)cc2)nc1N` [FLUPIRTINE], the concentration at half-maximal activity (AC50) was above 30 µM at Melanocortin receptor 3; above 30 µM at Adenosine receptor A2a; above 30 µM in assay [1]; above 30 µM in assay [2]; above 30 µM in [3]; 21 µM on Adenosine receptor A3. In addition, the AC50 on Adenosine receptor A1 was above 30 µM; in assay [4], above 30 µM; at D(1A) dopamine receptor, above 30 µM; in [5] it was above 30 µM; at D(3) dopamine receptor, above 30 µM; in assay [6], 27 µM.

Regarding `NCC1(CC(=O)O)CCCCC1` [GABAPENTIN], the AC50 (at Melanocortin receptor 3; on Adenosine receptor A2a; in assay [1]; in assay [2]; in assay [3]; at Adenosine receptor A3) was above 30 µM in each case. In addition, the half-maximal activity concentration (AC50) (on Adenosine receptor A1; in [4]; at D(1A) dopamine receptor; in [5]; on D(3) dopamine receptor; in assay [6]) was above 30 µM each time.

On to `CCN(CCO)CCCC(C)Nc1ccnc2cc(Cl)ccc12` (centres undefined) [HYDROXYCHLOROQUINE], for which the AC50 (on Melanocortin receptor 3; on Adenosine receptor A2a; in [1]; in [2]; in [3]; on Adenosine receptor A3) was above 10 µM in each case. For the same compound, the AC50 on Adenosine receptor A1 was above 10 µM; in [4], above 30 µM; at D(1A) dopamine receptor, above 10 µM; in [5], above 10 µM; at D(3) dopamine receptor it was above 30 µM; in assay [6], 7.4 µM.

Regarding `C[C@@H](O)[C@H]1C(=O)N2C(C(=O)O)=C(SCCN=CN)C[C@H]12` [IMIPENEM ANHYDROUS], the AC50 on Melanocortin receptor 3 was above 300 µM; at Adenosine receptor A2a, above 300 µM; in assay [1] it was above 300 µM; in assay [2], above 300 µM; in assay [3] it was above 300 µM; on Adenosine receptor A3, 180 µM. In addition, the AC50 at Adenosine receptor A1 is above 300 µM; in assay [4], above 300 µM; on D(1A) dopamine receptor, above 300 µM; in assay [5] it was above 300 µM; at D(3) dopamine receptor, above 300 µM; in assay [6] it was above 30 µM.

As to `O=C(c1ccccc1)c1ccc2n1CCC2C(=O)O` (centres undefined) [KETOROLAC], the AC50 at Melanocortin receptor 3 is above 10 µM; at Adenosine receptor A2a, above 10 µM; in [1], above 30 µM; in [2], above 10 µM; in [3] it was above 10 µM; on Adenosine receptor A3, above 10 µM. The AC50 on Adenosine receptor A1 is above 10 µM; in [4], above 30 µM; on D(1A) dopamine receptor, above 30 µM; in assay [5] it was above 10 µM; on D(3) dopamine receptor it was above 30 µM; in assay [6], above 30 µM.

In the case of `N[C@@H](Cc1cc(I)c(Oc2cc(I)c(O)c(I)c2)c(I)c1)C(=O)O` [LEVOTHYROXINE], the AC50 on Melanocortin receptor 3 was above 30 µM; at Adenosine receptor A2a, above 30 µM; in assay [1], above 30 µM; in [2] it was above 30 µM; in assay [3], above 30 µM; at Adenosine receptor A3 it was 11 µM. For the same compound, the AC50 (at Adenosine receptor A1; in assay [4]; on D(1A) dopamine receptor; in [5]; at D(3) dopamine receptor; in assay [6]) was above 30 µM each time.

For `CNC1(C)C2CCC(C2)C1(C)C` (centres undefined) [MECAMYLAMINE], the AC50 (at Melanocortin receptor 3; on Adenosine receptor A2a; in [1]; in assay [2]; in assay [3]; at Adenosine receptor A3) was above 10 µM each time. Moreover, the AC50 was above 10 µM on Adenosine receptor A1; above 30 µM in assay [4]; above 10 µM at D(1A) dopamine receptor; above 10 µM in [5]; above 30 µM on D(3) dopamine receptor; above 30 µM in assay [6].

With `CCC1(c2ccccc2)C(=O)NCNC1=O` [PRIMIDONE], the concentration at half-maximal activity (AC50) (at Melanocortin receptor 3; at Adenosine receptor A2a; in assay [1]; in [2]; in [3]; on Adenosine receptor A3) was above 10 µM each time. For the same compound, the AC50 is above 10 µM on Adenosine receptor A1; above 30 µM in [4]; above 10 µM on D(1A) dopamine receptor; above 10 µM in assay [5]; above 30 µM on D(3) dopamine receptor; above 30 µM in assay [6].

For the compound `CC(=O)SCC(Cc1ccccc1)C(=O)NCC(=O)OCc1ccccc1` (centres undefined) [RACECADOTRIL], the AC50 on Melanocortin receptor 3 was above 30 µM; on Adenosine receptor A2a, above 30 µM; in assay [1], above 30 µM; in assay [2], above 10 µM; in assay [3], above 30 µM; at Adenosine receptor A3 it was above 30 µM. The concentration at half-maximal activity (AC50) (at Adenosine receptor A1; in assay [4]; at D(1A) dopamine receptor; in assay [5]; at D(3) dopamine receptor; in assay [6]) was above 30 µM each time.

As to `CCOc1ccccc1OCCN[C@H](C)Cc1ccc(OC)c(S(N)(=O)=O)c1` [TAMSULOSIN], the concentration at half-maximal activity (AC50) on Melanocortin receptor 3 is above 30 µM; on Adenosine receptor A2a it was above 30 µM; in assay [1], above 10 µM; in assay [2], above 30 µM; in assay [3], above 30 µM; on Adenosine receptor A3, above 30 µM. Moreover, the AC50 is above 30 µM on Adenosine receptor A1; above 30 µM in assay [4]; above 10 µM at D(1A) dopamine receptor; above 30 µM in assay [5]; 0.0032 µM at D(3) dopamine receptor; 6.95 µM in [6].
